Reference: patent publication US20050271606A1, “Composition for treating inflammation which contains zinc pyrrolidonecarboxylate” (priority 2004, published 2005)

What was measured:
Format in all cases: cell-based
AP-1 = assay: Action on AP-1 activation by ultraviolet ray (UVA) in human dermal fibroblasts, activated AP-1 in nucleoprotein (gel shift or ELISA assay); details: 50 μM, 18 h incubation, UVA 20 J/cm^2
Experimental: (§1) The fibroblasts were irradiated with ultraviolet rays (UVA: 20 J/cm^2) using Dermaray M-DMR-80 (manufactured by Toshiba Iryoyohin). After 4 to 5 hours, the fibroblasts were recovered and the nucleoprotein was extracted therefrom by a conventional method. The resulting nucleoprotein was subjected to a gel shift assay or an ELISA assay (TransAM Kit, ACTIVE MOTIF) to detect activated AP-1. When applying the gel shift assay, the radioactive value of the AP-1 band was measured using a bio-imaging analyzer BAS 2000 (manufactured by Fuji Photo Film).
The suppression rate of the test compound for AP-1 activation was calculated from the following formula. Suppression Rate for AP-1 Activation (%)={1−(A1−A3)/(A2−A3)}×100 A1: radioactive value of AP-1 band when a test compound was added A2: radioactive value of AP-1 band when no test compound was added A3: radioactive value of AP-1 band when no test compound was added and no irradiation with ultraviolet rays

AP-1 (c-Jun) = assay: AP-1 activation by ultraviolet ray in human dermal fibroblasts, ELISA assay (TransAM Kit), quantity of c-Jun; details: 18 h incubation, UVA 20 J/cm^2, ELISA
Experimental: as §1
(§2) An ELISA assay was performed in accordance with the manual of the kit used, and the activation of AP-1 was obtained by determination of the quantity of c-Jun or c-Fos.
(§3) The suppression rate of AP-1 (c-Jun or c-Fos) activation of a test compound was calculated from the following formula. Suppression Rate for AP-1 Activation (%)={1−{B1−B3)/(B2−B3)}×100 B1: 450 nm absorbance when a test compound was added (per nucleoprotein) B2: 450 nm absorbance when no test compound was added (per nucleoprotein) B3: 450 nm absorbance when no test compound was added and no ultraviolet ray was irradiated (per nucleoprotein)

AP-1 (c-Fos) = assay: AP-1 activation by ultraviolet ray in human dermal fibroblasts, ELISA assay (TransAM Kit), quantity of c-Fos; details: 18 h incubation, UVA 20 J/cm^2, ELISA
Experimental: as §1, §2, §3

Molecule | Suppressing Rate (%) for AP-1 activation (AP-1) [%] | Suppressing Rate (%) (c-Jun) (AP-1 (c-Jun); 10 μM) | Suppressing Rate (%) (c-Jun) (AP-1 (c-Jun); 100 μM) | Suppressing Rate (%) (c-FOS) (AP-1 (c-Fos); 10 μM) | Suppressing Rate (%) (c-FOS) (AP-1 (c-Fos); 100 μM)
O=C1CCC(C(=O)[O-])N1.O=C1CCC(C(=O)[O-])N1.[Zn+2] (racemic) [Zinc DL-Pyrrolidonecarboxylate] | 38.8 | – | – | – | –
O=C1CC[C@@H](C(=O)[O-])N1.O=C1CC[C@@H](C(=O)[O-])N1.[Zn+2] [Zinc L-Pyrrolidonecarboxylate] | – | 109.5 | 106.7 | 69.3 | 77.0
NCC(=O)[O-].NCC(=O)[O-].[Zn+2] [Zinc Salt of Glycine] | −72.8 | – | – | – | –
Zinc Laurate | 9.1 | – | – | – | –
